Measurements: the supplement of paper PMC10307832

Tests used:
Assay in all cases: relative viability (nuclei count vs DMSO), 5 days (fraction); higher = more cells survive
[1] = compound: C1=CC2=C(C=C(C(=C2N=C1)O)N=NC3=CC4=C(C=C3)C=C(C=C4)S(=O)(=O)O)S(=O)(=O)O + CS(=O)(=O)CCNCc1ccc(-c2ccc3ncnc(Nc4ccc(OCc5cccc(F)c5)c(Cl)c4)c3c2)o1 [Lapatinib] (partner 2 µM)
Summary of the method: (§1)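 Relative viability equals treated-well nuclei counts divided by vehicle-well nuclei counts. Counts came from 4× images of lung cancer cell lines grown in 1536-well plates for 5 days after pin-tool dosing on the day after seeding. Dosing used one drug alone or a fixed anchor-drug dose plus five library-drug doses (not always all listed) in √10 steps, and values are medians of duplicate plates.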

[2] = compound: O=C(NC1CCNCC1)c1n[nH]cc1NC(=O)c1c(Cl)cccc1Cl [AT-7519] + O=C(c1cc(Cc2n[nH]c(=O)c3ccccc23)ccc1F)N1CCN(C(=O)C2CC2)CC1 [Olaparib] (partner 8 µM)
Summary of the method: as §1

[3] = compound: O=C(NC1CCNCC1)c1n[nH]cc1NC(=O)c1c(Cl)cccc1Cl [AT-7519] + C[C@@H](Oc1cc(-c2cnn(C3CCNCC3)c2)cnc1N)c1c(Cl)ccc(F)c1Cl [Crizotinib] (partner 1 µM)
Summary of the method: as §1

[4] = compound: C1=CC2=C(C=C(C(=C2N=C1)O)N=NC3=CC4=C(C=C3)C=C(C=C4)S(=O)(=O)O)S(=O)(=O)O + Cc1nc(Nc2ncc(C(=O)Nc3c(C)cccc3Cl)s2)cc(N2CCN(CCO)CC2)n1 [Dasatinib] (partner 0.075 µM)
Summary of the method: as §1

Cell Line | relative viability ([1]; first compound 0.08 µM) | relative viability ([1]; first compound 0.253 µM) | relative viability ([1]; first compound 0.8 µM) | relative viability ([1]; first compound 2.53 µM) | relative viability ([1]; first compound 8 µM) | relative viability ([2]; first compound 0.01 µM) | relative viability ([2]; first compound 0.03162 µM) | relative viability ([2]; first compound 0.3162 µM) | relative viability ([2]; first compound 1 µM) | relative viability ([3]; first compound 0.01 µM) | relative viability ([3]; first compound 0.03162 µM) | relative viability ([3]; first compound 0.3162 µM) | relative viability ([3]; first compound 1 µM) | relative viability ([4]; first compound 0.08 µM) | relative viability ([4]; first compound 0.253 µM) | relative viability ([4]; first compound 0.8 µM) | relative viability ([4]; first compound 2.53 µM) | relative viability ([4]; first compound 8 µM)
NCI-H322M | 0.627 | 0.639 | 0.528 | 0.613 | 0.716 | 0.746 | 0.739 | 0.249 | 0.643 | 0.848 | 0.93 | 0.892 | 0.901 | 0.252 | 0.251 | 0.234 | 0.27 | 0.274
NCI-H358 | 0.436 | 0.393 | 0.469 | 0.486 | 0.483 | 0.608 | 0.48 | 0.36 | 0.11 | 0.544 | 0.544 | 0.458 | 0.0912 | 0.149 | 0.183 | 0.153 | 0.184 | 0.168
NCI-H460 | 1.53 | 1.01 | 1.05 | 1.13 | 0.965 | 0.367 | 0.456 | 0.315 | 0.18 | 0.858 | 0.9 | 0.608 | 0.0144 | 0.515 | 0.536 | 0.492 | 0.489 | 0.522
NCI-H520 | 1.1 | 0.791 | 0.833 | 0.798 | 0.848 | 0.341 | 0.315 | 0.287 | 0.201 | 0.753 | 0.768 | 0.595 | 0.269 | 0.185 | 0.206 | 0.204 | 0.157 | 0.176
NCI-H596 | 1.11 | 1.02 | 0.977 | 1.01 | 1.01 | 0.64 | 0.733 | 0.691 | 0.644 | 0.828 | 0.962 | 1.05 | 0.87 | 0.651 | 0.685 | 0.554 | 0.727 | 0.703
NCI-H647 | 1.64 | 0.828 | 0.974 | 0.998 | 0.904 | 0.355 | 0.55 | 0.482 | 0.189 | 0.812 | 0.873 | 0.965 | 0.411 | 0.212 | 0.169 | 0.151 | 0.143 | 0.194
NCI-H650 | 0.91 | 0.786 | 0.838 | 0.86 | 0.525 | 0.413 | 0.384 | 0.439 | 0.349 | 0.788 | 0.797 | 0.733 | 0.625 | 0.412 | 0.433 | 0.496 | 0.462 | 0.342
NCI-H661 | 0.541 | 0.49 | 0.431 | 0.626 | 0.49 | 0.775 | 0.834 | 0.762 | 0.251 | 0.978 | 1.22 | 1.16 | 1.04 | 0.938 | 0.877 | 0.903 | 0.93 | 0.817
NCI-H727 | 1.09 | 0.873 | 0.768 | 0.978 | 0.701 | 0.711 | 0.772 | 0.7 | 0.365 | 0.968 | 0.875 | 0.6 | 0.27 | 0.454 | 0.39 | 0.352 | 0.412 | 0.345
NCI-H838 | 1.29 | 0.926 | 0.934 | 0.926 | 1.06 | 0.812 | 0.766 | 0.576 | 0.0987 | 0.805 | 0.826 | 0.571 | 0.194 | 0.292 | 0.25 | 0.283 | 0.3 | 0.29
NCI-H1355 | 1.02 | 0.999 | 0.905 | 1.05 | 1.08 | 0.687 | 0.765 | 0.789 | 0.68 | 1.1 | 1.02 | 1.13 | 0.943 | 0.764 | 0.754 | 0.708 | 0.77 | 0.665
NCI-H1437 | 0.896 | 0.791 | 0.781 | 0.811 | 0.748 | 0.644 | 0.643 | 0.574 | 0.279 | 0.93 | 1.06 | 0.9 | 0.361 | 0.351 | 0.402 | 0.43 | 0.383 | 0.301
NCI-H1650 | 0.753 | 0.739 | 0.714 | 0.821 | 0.734 | 0.899 | 0.776 | 0.75 | 0.193 | 1.26 | 0.956 | 0.576 | 0.169 | 0.34 | 0.315 | 0.338 | 0.332 | 0.227
NCI-H1651 | 0.764 | 0.865 | 0.781 | 0.911 | 0.964 | 0.201 | 0.172 | 0.163 | 0.204 | 0.858 | 0.846 | 0.909 | 0.847 | 0.451 | 0.3 | 0.416 | 0.406 | 0.466
NCI-H1666 | 0.768 | 0.606 | 0.473 | 0.718 | 0.618 | 0.674 | 0.724 | 0.68 | 0.65 | 0.902 | 0.972 | 0.726 | 0.604 | 0.866 | 0.755 | 0.793 | 0.816 | 0.741
NCI-H1734 | 1.13 | 1.03 | 1.05 | 0.911 | 1.09 | 0.535 | 0.585 | 0.537 | 0.263 | 0.662 | 0.724 | 0.544 | 0.305 | 0.583 | 0.346 | 0.428 | 0.44 | 0.48
NCI-H1755 | 1.06 | 1.04 | 1.01 | 1.05 | 1.05 | 0.946 | 0.957 | 0.949 | 0.854 | 0.837 | 1.03 | 0.935 | 0.688 | 0.483 | 0.475 | 0.455 | 0.433 | 0.536
